Source: ChEMBL document CHEMBL4219073, “Development of selective inhibitors for the treatment of rheumatoid arthritis: (R)-3-(3-(Methyl(7H-pyrrolo[2,3-d]pyrimidin-4-yl)amino)pyrrolidin-1-yl)-3-oxopropanenitrile as a JAK1-selective inhibitor” (Bioorg Med Chem, 2018)

Assays:
[1] = target: Tyrosine-protein kinase JAK1 (Homo sapiens, UniProt P23458)
Description: Inhibition of recombinant human JAK1 (866-end residues) in presence of ATP

[2] = target: Tyrosine-protein kinase JAK2 (Homo sapiens, UniProt O60674); assay type: ADME
Description: Inhibition of recombinant human JAK2 (808-end residues) in presence of ATP

in vitro [3] = conditions: human, microsomes
Description: Metabolic stability in human liver microsomes assessed as parent compound remaining after 30 mins

in vitro [4] = conditions: mouse, microsomes
Description: Metabolic stability in mouse liver microsomes assessed as parent compound remaining after 30 mins

in vitro [5] = conditions: rat, microsomes
Description: Metabolic stability in rat liver microsomes assessed as parent compound remaining after 30 mins

in vitro [6] = conditions: dog, microsomes
Description: Metabolic stability in dog liver microsomes assessed as parent compound remaining after 30 mins

Tyrosine-protein kinase JAK2, sequence (O60674 whole entry): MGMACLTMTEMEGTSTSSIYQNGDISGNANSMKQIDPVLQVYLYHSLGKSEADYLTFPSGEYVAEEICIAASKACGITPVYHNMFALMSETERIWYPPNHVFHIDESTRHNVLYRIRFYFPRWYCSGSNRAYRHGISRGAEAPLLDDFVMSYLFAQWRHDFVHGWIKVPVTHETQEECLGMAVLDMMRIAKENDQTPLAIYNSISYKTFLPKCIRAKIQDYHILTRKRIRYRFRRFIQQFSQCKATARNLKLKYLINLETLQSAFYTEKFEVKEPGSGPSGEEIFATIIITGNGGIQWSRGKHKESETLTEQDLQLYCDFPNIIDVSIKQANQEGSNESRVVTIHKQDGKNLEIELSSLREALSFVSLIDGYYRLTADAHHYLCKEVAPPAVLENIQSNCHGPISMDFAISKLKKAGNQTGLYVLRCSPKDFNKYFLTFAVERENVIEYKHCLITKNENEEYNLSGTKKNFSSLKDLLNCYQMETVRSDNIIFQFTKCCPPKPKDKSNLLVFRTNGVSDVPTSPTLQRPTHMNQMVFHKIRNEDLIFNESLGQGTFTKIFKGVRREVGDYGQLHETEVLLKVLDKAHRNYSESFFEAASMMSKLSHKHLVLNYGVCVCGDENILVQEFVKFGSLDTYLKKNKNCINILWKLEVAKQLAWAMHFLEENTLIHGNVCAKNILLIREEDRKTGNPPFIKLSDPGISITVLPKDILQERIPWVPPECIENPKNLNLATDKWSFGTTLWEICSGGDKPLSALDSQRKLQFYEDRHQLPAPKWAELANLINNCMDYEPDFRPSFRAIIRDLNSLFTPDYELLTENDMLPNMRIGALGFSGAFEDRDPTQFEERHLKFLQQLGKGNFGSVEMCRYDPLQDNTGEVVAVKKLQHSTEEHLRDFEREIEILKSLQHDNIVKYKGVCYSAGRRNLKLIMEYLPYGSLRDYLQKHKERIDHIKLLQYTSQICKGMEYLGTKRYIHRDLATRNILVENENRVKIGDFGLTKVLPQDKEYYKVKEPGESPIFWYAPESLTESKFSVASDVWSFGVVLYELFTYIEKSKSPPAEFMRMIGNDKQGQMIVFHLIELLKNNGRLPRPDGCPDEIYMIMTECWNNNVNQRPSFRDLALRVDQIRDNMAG
Tyrosine-protein kinase JAK1, sequence (P23458 whole entry): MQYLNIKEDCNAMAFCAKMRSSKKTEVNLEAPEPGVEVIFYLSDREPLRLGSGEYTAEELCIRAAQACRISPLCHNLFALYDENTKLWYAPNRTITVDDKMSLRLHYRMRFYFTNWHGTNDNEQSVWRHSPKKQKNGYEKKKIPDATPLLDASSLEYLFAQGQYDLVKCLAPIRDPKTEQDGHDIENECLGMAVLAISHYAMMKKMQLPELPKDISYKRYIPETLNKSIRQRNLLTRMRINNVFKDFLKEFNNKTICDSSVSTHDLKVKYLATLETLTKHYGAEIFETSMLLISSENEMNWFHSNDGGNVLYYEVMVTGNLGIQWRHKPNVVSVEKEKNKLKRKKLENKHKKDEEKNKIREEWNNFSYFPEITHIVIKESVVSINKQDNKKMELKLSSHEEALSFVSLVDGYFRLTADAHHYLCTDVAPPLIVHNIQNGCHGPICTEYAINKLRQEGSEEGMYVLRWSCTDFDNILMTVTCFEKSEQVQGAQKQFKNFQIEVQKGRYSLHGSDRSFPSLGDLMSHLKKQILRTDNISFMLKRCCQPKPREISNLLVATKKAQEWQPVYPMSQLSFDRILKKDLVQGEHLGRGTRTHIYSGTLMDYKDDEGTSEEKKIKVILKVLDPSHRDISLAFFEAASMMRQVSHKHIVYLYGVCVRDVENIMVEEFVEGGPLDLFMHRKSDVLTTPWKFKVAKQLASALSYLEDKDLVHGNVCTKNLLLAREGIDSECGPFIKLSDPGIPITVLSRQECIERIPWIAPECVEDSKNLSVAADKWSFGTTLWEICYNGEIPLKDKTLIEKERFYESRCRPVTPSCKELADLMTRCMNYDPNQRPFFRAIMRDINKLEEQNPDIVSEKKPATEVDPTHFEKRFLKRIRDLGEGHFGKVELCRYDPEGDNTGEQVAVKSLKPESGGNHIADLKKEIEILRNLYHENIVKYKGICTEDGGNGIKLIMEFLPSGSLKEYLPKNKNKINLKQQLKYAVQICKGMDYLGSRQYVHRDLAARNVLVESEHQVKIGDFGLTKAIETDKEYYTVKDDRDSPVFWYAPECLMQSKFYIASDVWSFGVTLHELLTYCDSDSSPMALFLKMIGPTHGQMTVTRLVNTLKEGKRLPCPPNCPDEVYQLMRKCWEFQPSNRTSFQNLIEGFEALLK

| SMILES | IC50 [1] [nM] | IC50 [2] [nM] | remaining at 0.5 h (in vitro [3]) [%] | remaining at 0.5 h (in vitro [4]) [%] | remaining at 0.5 h (in vitro [5]) [%] | remaining at 0.5 h (in vitro [6]) [%] |
| --- | --- | --- | --- | --- | --- | --- |
| CN(c1ncnc2[nH]ccc12)[C@@H]1CCN(C(=O)Nc2ccccc2)C1 | 22 | 550 |  |  |  |  |
| N#CCC(=O)N1CC[C@@H](N(CC2CC2)c2ncnc3[nH]ccc23)C1 | 160 | 1700 |  |  |  |  |
| CCCS(=O)(=O)N1CC[C@@H](N(C)c2ncnc3[nH]ccc23)C1 | 34 | 460 |  |  |  |  |
| CCS(=O)(=O)N1CC[C@@H](N(C)c2ncnc3[nH]ccc23)C1 | 79 | 2400 |  |  |  |  |
| CN(c1ncnc2[nH]ccc12)[C@@H]1CCN(S(C)(=O)=O)C1 | 70 | 4700 |  |  |  |  |
| CCN(c1ncnc2[nH]ccc12)[C@@H]1CCN(C(=O)CC#N)C1 | 62 | 1300 |  |  |  |  |
| CN(c1ncnc2[nH]ccc12)[C@@H]1CCN(S(=O)(=O)c2ccc(C(F)(F)F)cc2)C1 | 9.5 | 3400 | 21 | 8.4 | 11.4 | 14.2 |
| CN(c1ncnc2[nH]ccc12)[C@@H]1CCN(S(=O)(=O)N2CCCCC2)C1 | 66 | 3900 |  |  |  |  |
| CN(c1ncnc2[nH]ccc12)[C@@H]1CCN(S(=O)(=O)c2ccccc2[N+](=O)[O-])C1 | 110 | 1100 |  |  |  |  |
| CN(c1ncnc2[nH]ccc12)[C@H]1CN(C(=O)CC#N)CC1(C)C | 260 | 5900 |  |  |  |  |
| CC(C)COC(=O)N1CC[C@@H](N(C)c2ncnc3[nH]ccc23)C1 | 110 | 4300 |  |  |  |  |

The next lines start with the values.

| IC50 [1] [nM] | IC50 [2] [nM] | remaining at 0.5 h (in vitro [3]) [%] | remaining at 0.5 h (in vitro [4]) [%] | remaining at 0.5 h (in vitro [5]) [%] | remaining at 0.5 h (in vitro [6]) [%] | SMILES |
| --- | --- | --- | --- | --- | --- | --- |
| 4.1 | 57 | 26.3 | 10 | 3.7 | 31.6 | CN(c1ncnc2[nH]ccc12)[C@@H]1CCN(S(=O)(=O)c2cccc(C#N)c2)C1 |
| 3.6 | 89 |  |  |  |  | CN(c1ncnc2[nH]ccc12)[C@@H]1CCN(S(=O)(=O)c2ccc([N+](=O)[O-])cc2)C1 |
| 11 | 1200 |  |  |  |  | CN(c1ncnc2[nH]ccc12)[C@@H]1CCN(S(=O)(=O)c2ccc(C#N)cc2)C1 |
| 11 | 110 |  |  |  |  | CN(c1ncnc2[nH]ccc12)[C@@H]1CCN(S(=O)(=O)c2ccc(F)cc2)C1 |
| 19 | 1800 |  |  |  |  | Cc1ccc(S(=O)(=O)N2CC[C@@H](N(C)c3ncnc4[nH]ccc34)C2)cc1 |
| 52 | 370 |  |  |  |  | CN(c1ncnc2[nH]ccc12)[C@@H]1CCN(S(=O)(=O)c2ccccc2C#N)C1 |
| 26 | 1500 |  |  |  |  | COc1ccc(S(=O)(=O)N2CC[C@@H](N(C)c3ncnc4[nH]ccc34)C2)cc1 |
| 13 | 690 |  |  |  |  | CN(c1ncnc2[nH]ccc12)[C@@H]1CCN(S(=O)(=O)c2ccc3ccccc3c2)C1 |
